According to patent US9212168B2 (priority 2011, dated 2015):

Columns and labels:
[1] = test system: HCV genotype 1b replicon; experiment: HCV genotype 1b replicon assay (Renilla luciferase readout); type: cell-based, hepatitis C virus; conditions: for EC50: Hepatitis C virus, read-out: Genotype 1b; for Genotype 1b: HCV genotype 1b replicon
How it was run: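 Reported as pEC50 derived from a 4-parameter fit of Renilla luciferase activity against concentration. Replicon cells (APC144, Huh7 background) were exposed to compound for 48 h in G418-free medium with final 0.5% DMSO, after seeding at 10,000 cells/well and 4 h adherence.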

[2] = test system: HCV genotype 1a replicon; experiment: HCV genotype 1a replicon assay (NS3 protease activity readout); type: cell-based, hepatitis C virus; conditions: for EC50: Hepatitis C virus, read-out: Genotype 1a, HCV genotype 1a replicon; for Genotype 1a: HCV genotype 1a replicon
How it was run: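 EC50 values came from a 4-parameter robust fit of fluorescence (ex 340, em 509 nm) produced by NS3-specific protease in lysates, assayed with 15 μM FRET substrate for 20 min at 37° C, after 48 or 72 hours of compound exposure (0.5% DMSO) of Huh7.5-derived APC89 genotype 1a replicon cells.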

[3] = test system: HCV genotype 2a (J6 strain) NS5A chimeric replicon; experiment: Replicon assay against NS5A sequence of genotype 2a (J6 strain), intergenotypic chimera; type: cell-based; conditions: Hepatitis C virus, read-out: Genotype 2a (J6)
Description: (§1) Assay 4: Replicon Assays Against NS5A Sequences of Other Genotypes
(§2) Potencies of test compounds against NS5A sequences of other genotypes were determined by creating intergenotypic chimeras. The entire NS5A gene from genotypes 2a, 2b, 3a, 4a, 5a, and 6a, or the nucleotide sequence encoding amino acids 11-118 of NS5A, was subcloned into a genotype 1b replicon. For genotype 2a, intergenotypic chimeras with both the JFH and the J6 strain were created. […] Since the majority of genotype 2a sequences in public databases contain the L31M sequence variant, the use of the J6 genotype 2a sequence may better reflect the antiviral potency of NS5A inhibitors.
(§3) These chimeric replicon plasmids were then linearized and in vitro transcribed to RNA. The RNA was used to transiently or stably transfect Huh-LUNET cells by electroporation, and the potencies of test compounds against the chimeras were determined as previously described.

[4] = test system: HCV genotype 3a NS5A chimeric replicon; experiment: Replicon assay against NS5A sequence of genotype 3a, intergenotypic chimera; type: cell-based; conditions: Hepatitis C virus, read-out: Genotype 3a
Description: as §1, §2, §3

[5] = test system: HCV genotype 1a Y93H resistant mutant replicon; experiment: Replicon assay against resistant mutant 1a Y93H (transient transfection); type: cell-based; conditions: Hepatitis C virus, read-out: Genotype 1a Y93H
Description: Assay 3: Replicon Assays Against Resistant Mutants […]
Potencies of test compounds against additional mutations of interest were determined using transient transfection assays. These mutants included genotype 1a Y93C, Y93H, M28T, Q30E, Q30K, L31M, and Y93N. The mutation was first introduced into the parental plasmid by site-directed mutagenesis. The replicon plasmid was then linearized and in vitro transcribed to RNA. The RNA was used to transiently transfect Huh-LUNET cells (obtained from ReBLikon GmbH, Schriesheim, Germany) by electroporation, and the potencies of test compounds against the mutants were determined as previously described.

Compound: COC(=O)N[C@H](C(=O)N1C[C@@H](C)C[C@H]1c1nc(-c2ccc(-c3cc(Cl)c(NC(=O)c4ccc(N5CCN(C(=O)[C@H]6CC6(C)C)C[C@H]5C)nc4)cc3OC(F)(F)F)cc2)c[nH]1)C(C)C [Example 2, [(S)-1-((2S,4S)-2-{4-[5′-Chloro-4′-({6-[(R)-4-((S)-2,2-dimethyl-cyclopropanecarbonyl)-2-methyl-piperazin-1-yl]-pyridine-3-carbonyl}-amino)-2′-trifluoromethoxy-biphenyl-4-yl]-1H-imidazol-2-yl}-4-methyl-pyrrolidine-1-carbonyl)-2-methyl-propyl]-carbamic acid methyl ester]
- EC50 [1]: < 0.0001 µM
- EC50 [2]: < 0.0001 µM
- EC50 [3]: 0.001 to 0.01 µM
- EC50 [4]: 0.001 to 0.01 µM

Compound: COC(=O)N[C@H](C(=O)N1C[C@@H](C)C[C@H]1c1nc(-c2ccc(-c3ccc(C(=O)Nc4ccc(N5C[C@H](C)N(C(=O)[C@H]6CC6(C)C)C[C@H]5C)nc4)cc3OC(F)(F)F)cc2)c[nH]1)C(C)C [Example 7, ((S)-1-{(2S,4S)-2-[4-(4′-{6-[(2R,5S)-4-((S)-2,2-Dimethyl-cyclopropanecarbonyl)-2,5-dimethyl-piperazin-1-yl]-pyridin-3-ylcarbamoyl}-2′-trifluoromethoxy-biphenyl-4-yl)-1H-imidazol-2-yl]-4-methyl-pyrrolidine-1-carbonyl}-2-methyl-propyl)-carbamic acid methyl ester]
- EC50 [1]: < 0.0001 µM
- EC50 [2]: < 0.0001 µM
- EC50 [3]: 0.01 to 1 µM
- EC50 [4]: 0.01 to 1 µM

Compound: COC(=O)N[C@H](C(=O)N1C[C@@H](SC)C[C@H]1c1nc(-c2ccc(-c3ccc(C(=O)Nc4ccc(N5CCN(C(=O)[C@H]6CC6(C)C)C[C@H]5C)nc4)cc3OC(F)(F)F)cc2)c[nH]1)C(C)C [Example 9, ((S)-1-{(2S,4S)-2-[4-(4′-{6-[(R)-4-((S)-2,2-Dimethyl-cyclopropanecarbonyl)-2-methyl-piperazin-1-yl]-pyridin-3-ylcarbamoyl}-2′-trifluoromethoxy-biphenyl-4-yl)-1H-imidazol-2-yl]-4-methylsulfanyl-pyrrolidine-1-carbonyl}-2-methyl-propyl)-carbamic acid methyl ester]
- EC50 [1]: < 0.0001 µM
- EC50 [2]: < 0.0001 µM
- EC50 [3]: 0.01 to 1 µM
- EC50 [4]: 0.01 to 1 µM

Compound: COC(=O)N[C@H](C(=O)N1C[C@@H](C#N)C[C@H]1c1nc(-c2ccc(-c3cc(Cl)c(NC(=O)c4ccc(N5CCN(C(=O)OC(C)(C)C)C[C@H]5C)nc4)cc3OC(F)(F)F)cc2)c[nH]1)C(C)C [Example 17, (R)-4-[5-(5-Chloro-4′-{2-[(2S,4S)-4-cyano-1-((S)-2-methoxycarbonylamino-3-methyl-butyryl)-pyrrolidin-2-yl]-1H-imidazol-4-yl}-2-trifluoromethoxy-biphenyl-4-ylcarbamoyl)-pyridin-2-yl]-3-methyl-piperazine-1-carboxylic acid tert-butyl ester]
- EC50 [2]: 0.0001 to 0.001 µM
- EC50 [5]: 0.01 to 1 µM
- EC50 [3]: 0.01 to 1 µM
- EC50 [4]: 0.01 to 1 µM

Compound: COC(=O)N[C@H](C(=O)N1C[C@@H](OC)C[C@H]1c1nc(-c2ccc(-c3ccc(NC(=O)c4ccc(N5CCN(C(=O)C(C)(C)C)C[C@H]5C)nc4)cc3OC(F)(F)F)cc2)c[nH]1)C(C)C [Example 27-8]
- Genotype 1b [1]: D (D represents pEC50>10 (EC50<0.1 nM))
- Genotype 1a [2]: D (D represents pEC50>10 (EC50<0.1 nM))

Compound: COC(=O)N[C@H](C(=O)N1C[C@@H](OC)C[C@H]1c1nc(-c2ccc(-c3cc(F)c(NC(=O)c4ccc(N5CCN(C(=O)C(C)(C)C)C[C@H]5C)nc4)cc3OC(F)(F)F)cc2)c[nH]1)C1CCOCC1 [Example 28-1]
- Genotype 1b [1]: D (D represents pEC50>10 (EC50<0.1 nM))
- Genotype 1a [2]: D (D represents pEC50>10 (EC50<0.1 nM))

Compound: COC(=O)N[C@H](C(=O)N1C[C@@H](OC)C[C@H]1c1nc(-c2ccc(-c3ccc(NC(=O)c4ccc(N5CCN(C(=O)C(C)(C)C)C[C@H]5C)nc4)cc3OC(F)(F)F)cc2)c[nH]1)C1CCOCC1 [Example 28-2]
- Genotype 1b [1]: D (D represents pEC50>10 (EC50<0.1 nM))
- Genotype 1a [2]: D (D represents pEC50>10 (EC50<0.1 nM))

Compound: COC(=O)N[C@H](C(=O)N1C[C@@H](OC)C[C@H]1c1nc(-c2ccc(-c3cc(F)c(NC(=O)c4ccc(N5CCN(C(=O)C(C)(C)CO)C[C@H]5C)nc4)cc3OC(F)(F)F)cc2)c[nH]1)C1CCOCC1 [Example 28-3]
- Genotype 1b [1]: D (D represents pEC50>10 (EC50<0.1 nM))
- Genotype 1a [2]: D (D represents pEC50>10 (EC50<0.1 nM))

Compound: COC(=O)N[C@H](C(=O)N1C[C@@H](OC)C[C@H]1c1nc(-c2ccc(-c3cc(Cl)c(NC(=O)c4ccc(N5C[C@H](C)N(C(=O)[C@H]6CC6(C)C)C[C@H]5C)nc4)cc3OC(F)(F)F)cc2)c[nH]1)C1CCOCC1 [Example 28-6]
- Genotype 1b [1]: D (D represents pEC50>10 (EC50<0.1 nM))
- Genotype 1a [2]: D (D represents pEC50>10 (EC50<0.1 nM))

Compound: COC(=O)N[C@H](C(=O)N1C[C@@H](OC)C[C@H]1c1nc(-c2ccc(-c3cc(Cl)c(NC(=O)c4ccc(N5C[C@H](C)N(C(=O)C(C)(C)C)C[C@H]5C)nc4)cc3OC(F)(F)F)cc2)c[nH]1)C1CCOCC1 [Example 28-7]
- Genotype 1b [1]: D (D represents pEC50>10 (EC50<0.1 nM))
- Genotype 1a [2]: D (D represents pEC50>10 (EC50<0.1 nM))

Compound: COC(=O)N[C@H](C(=O)N1C[C@@H](OC)C[C@H]1c1nc(-c2ccc(-c3cc(Cl)c(NC(=O)c4ccc(N5CCN(C(=O)[C@H]6CC6(C)C)C[C@H]5C)nc4)cc3OC(F)(F)F)cc2)c[nH]1)C1CCOCC1 [Example 28-11]
- Genotype 1b [1]: D (D represents pEC50>10 (EC50<0.1 nM))
- Genotype 1a [2]: D (D represents pEC50>10 (EC50<0.1 nM))

Compound: COC(=O)N[C@H](C(=O)N1C[C@@H](OC)C[C@H]1c1nc(-c2ccc(-c3cc(Cl)c(NC(=O)c4ccc(N5CCN(C(=O)C(C)(C)C)C[C@H]5C)nc4)cc3OC(F)(F)F)cc2)c(CO)[nH]1)C1CCOCC1 [Example 28-15]
- Genotype 1b [1]: D (D represents pEC50>10 (EC50<0.1 nM))
- Genotype 1a [2]: D (D represents pEC50>10 (EC50<0.1 nM))

Compound: COC(=O)N[C@H](C(=O)N1C[C@@H](OC)C[C@H]1c1nc(-c2ccc(-c3cc(Cl)c(NC(=O)c4ccc(N5CCN(C(=O)C(C)(C)CO)C[C@H]5C)nc4)cc3OC(F)(F)F)cc2)c(CO)[nH]1)C1CCOCC1 [Example 28-16]
- Genotype 1b [1]: D (D represents pEC50>10 (EC50<0.1 nM))
- Genotype 1a [2]: D (D represents pEC50>10 (EC50<0.1 nM))

Compound: COCC(=O)N1CCC[C@@]1(C)C(=O)N1C[C@@H](C)N(c2ccc(C(=O)Nc3cc(OC(F)(F)F)c(-c4ccc(-c5c[nH]c([C@@H]6C[C@H](OC)CN6C(=O)[C@@H](NC(=O)OC)C6CCOCC6)n5)cc4)cc3Cl)cn2)C[C@@H]1C [Example 28-17]
- Genotype 1b [1]: D (D represents pEC50>10 (EC50<0.1 nM))
- Genotype 1a [2]: D (D represents pEC50>10 (EC50<0.1 nM))

Compound: COC(=O)N[C@H](C(=O)N1C[C@@H](OC)C[C@H]1c1nc(-c2ccc(-c3cc(Cl)c(NC(=O)c4ccc(N5C[C@H](C)N(C(=O)[C@]6(C)CCCN6C(=O)OC)C[C@H]5C)nc4)cc3OC(F)(F)F)cc2)c[nH]1)C1CCOCC1 [Example 28-18]
- Genotype 1b [1]: D (D represents pEC50>10 (EC50<0.1 nM))
- Genotype 1a [2]: D (D represents pEC50>10 (EC50<0.1 nM))

Compound: COC(=O)N[C@H](C(=O)N1C[C@@H](OC)C[C@H]1c1nc(-c2ccc(-c3cc(Cl)c(NC(=O)c4ccc(N5C[C@H](C)N(C(=O)[C@]6(C)CCCN6C(=O)CN(C)C)C[C@H]5C)nc4)cc3OC(F)(F)F)cc2)c[nH]1)C1CCOCC1 [Example 28-19]
- Genotype 1b [1]: D (D represents pEC50>10 (EC50<0.1 nM))
- Genotype 1a [2]: C (C represents pEC50 between and 9 and about 10, (EC50 between 1 nM and 0.1 nM))

Compound: COCC1(C(=O)N2CCN(c3ccc(C(=O)Nc4cc(OC(F)(F)F)c(-c5ccc(-c6c[nH]c([C@@H]7C[C@H](OC)CN7C(=O)[C@@H](NC(=O)OC)C7CCOCC7)n6)cc5)cc4Cl)cn3)[C@H](C)C2)CC1 [Example 28-21]
- Genotype 1b [1]: D (D represents pEC50>10 (EC50<0.1 nM))
- Genotype 1a [2]: D (D represents pEC50>10 (EC50<0.1 nM))

Compound: COCC1(C(=O)N2CCN(c3ccc(C(=O)Nc4cc(OC(F)(F)F)c(-c5ccc(-c6c[nH]c([C@@H]7C[C@H](OC)CN7C(=O)[C@@H](NC(=O)OC)C7CCOCC7)n6)cc5)cc4Cl)cn3)[C@H](C)C2)CCC1 [Example 28-22]
- Genotype 1b [1]: D (D represents pEC50>10 (EC50<0.1 nM))
- Genotype 1a [2]: D (D represents pEC50>10 (EC50<0.1 nM))
